Reference: PMC3695085, “Screening and Improving the Recombinant Nitrilases and Application in Biotransformation of Iminodiacetonitrile to Iminodiacetic Acid” (PLoS ONE, 2013)

What was measured:
Format in all cases: biochemical
ApN = molecular target: T1, ApN (Arthrobacter pascens, UniProt E1CJF8); experiment: GC-FID of ADPN consumed; conditions: 50 mM ADPN, pH 7.5, 50 mM potassium phosphate, 35 °C, 30 min
T1 construct: gene inhB; full-length, pET-28b(+), His-tag (Ni-NTA), E. coli BL21(DE3)
T1 sequence (E1CJF8 1-359): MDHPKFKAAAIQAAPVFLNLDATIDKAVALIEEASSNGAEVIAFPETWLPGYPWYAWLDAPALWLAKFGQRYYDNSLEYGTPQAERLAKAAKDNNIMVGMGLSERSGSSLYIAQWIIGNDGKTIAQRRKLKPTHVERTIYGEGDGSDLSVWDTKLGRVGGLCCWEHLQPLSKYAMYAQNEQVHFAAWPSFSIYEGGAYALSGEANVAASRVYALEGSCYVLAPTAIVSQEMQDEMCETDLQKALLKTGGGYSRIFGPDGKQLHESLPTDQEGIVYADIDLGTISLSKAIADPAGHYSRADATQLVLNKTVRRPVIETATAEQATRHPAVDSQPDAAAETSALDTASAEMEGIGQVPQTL

RjN = molecular target: T2, RjN (Rhodococcus rhodochrous, UniProt Q03217); experiment: GC-FID of ADPN consumed; conditions: 50 mM ADPN, pH 7.5, 50 mM potassium phosphate, 35 °C, 30 min
T2 construct: gene nitA; full-length, pET-28b(+), His-tag (Ni-NTA), E. coli BL21(DE3)
T2 sequence (Q03217 1-366 limits assumed): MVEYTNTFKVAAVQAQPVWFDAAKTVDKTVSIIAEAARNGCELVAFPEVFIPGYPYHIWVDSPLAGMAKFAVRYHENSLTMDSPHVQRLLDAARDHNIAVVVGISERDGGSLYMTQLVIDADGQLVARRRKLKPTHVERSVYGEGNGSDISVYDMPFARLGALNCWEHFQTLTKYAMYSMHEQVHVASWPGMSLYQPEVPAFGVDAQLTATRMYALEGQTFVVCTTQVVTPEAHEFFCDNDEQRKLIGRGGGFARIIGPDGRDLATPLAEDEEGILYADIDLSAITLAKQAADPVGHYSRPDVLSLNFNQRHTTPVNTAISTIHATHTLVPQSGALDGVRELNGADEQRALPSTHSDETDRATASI

TpN = molecular target: T3, TpN (Thalassiosira pseudonana, UniProt B8C1M9); experiment: GC-FID of ADPN consumed; conditions: 50 mM ADPN, pH 7.5, 50 mM potassium phosphate, 35 °C, 30 min
T3 construct: gene NIT2; full-length, pET-28b(+), His-tag (Ni-NTA), E. coli BL21(DE3)

GpN = molecular target: T4, GpN (Aeribacillus pallidus, UniProt Q0PIV8); experiment: GC-FID of ADPN consumed; conditions: pH […] potassium phosphate, […] °C, […] min
T4 construct: full-length, pET-28b(+), His-tag (Ni-NTA), E. coli BL21(DE3)
T4 sequence (Q0PIV8 1-323): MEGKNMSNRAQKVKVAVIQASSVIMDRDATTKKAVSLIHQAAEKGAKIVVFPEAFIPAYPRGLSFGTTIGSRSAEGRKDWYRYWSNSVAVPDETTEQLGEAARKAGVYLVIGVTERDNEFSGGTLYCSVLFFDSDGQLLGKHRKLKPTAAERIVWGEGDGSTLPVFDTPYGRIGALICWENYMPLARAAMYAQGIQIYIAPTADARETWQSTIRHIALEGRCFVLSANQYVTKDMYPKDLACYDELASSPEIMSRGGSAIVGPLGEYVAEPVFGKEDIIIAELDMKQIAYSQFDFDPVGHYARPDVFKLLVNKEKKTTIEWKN

AcN = molecular target: T5, AcN (Acidovorax facilis, UniProt Q1W2L4); experiment: initial velocity, HPLC, Michaelis-Menten fit; conditions: pH 7.5, 50 mM potassium phosphate, 35 °C; unit printed as mM^−1 (mM meant); 10.5–262.5 mM substrate
T5 construct: gene nitA; full-length, pET-28b(+), His-tag (Ni-NTA), E. coli BL21(DE3); synthesised gene
Text: initial velocity, HPLC, Michaelis-Menten fit on AcN

Compound | GC-FID of ADPN consumed (ApN) | GC-FID of ADPN consumed (RjN) | GC-FID of ADPN consumed (TpN) | GC-FID of ADPN consumed (GpN) | Km mM^-1 (AcN) [mM⁻¹]
N#CCCCCC#N [adiponitrile] | All nitrilases demonstrated ADPN hydrolysis activity | All nitrilases demonstrated ADPN hydrolysis activity | All nitrilases demonstrated ADPN hydrolysis activity | All nitrilases demonstrated ADPN hydrolysis activity | –
N#CCNCC#N [iminodiacetonitrile] | – | – | – | – | 0.76 ± 0.02
